Test results: PubChem BioAssay (NCI)
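48-hour exposure; five concentrations; linearly interpolated endpoints. GI50 = concentration required for 50% inhibition of growth. TGI: total growth inhibition.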

What was measured:
Experiment in all cases: DTP human tumour cell line panel, 48 h
HCT-15 colon = system: HCT-15 colon
HL-60(TB) leukemia = system: HL-60(TB) leukemia
HCT-116 colon = system: HCT-116 colon
MOLT-4 leukemia = system: MOLT-4 leukemia
EKVX NSCLC = system: EKVX NSCLC
MALME-3M melanoma = system: MALME-3M melanoma
U251 CNS = system: U251 CNS
NCI/ADR-RES ovarian = system: NCI/ADR-RES ovarian
MDA-MB-231 breast = system: MDA-MB-231 breast
T-47D breast = system: T-47D breast

Row | SMILES | TGI (HCT-15 colon) [µM] | TGI (HL-60(TB) leukemia) [µM] | TGI (HCT-116 colon) [µM] | TGI (MOLT-4 leukemia) [µM] | TGI (EKVX NSCLC) [µM] | TGI (MALME-3M melanoma) [µM] | TGI (U251 CNS) [µM] | TGI (NCI/ADR-RES ovarian) [µM] | TGI (MDA-MB-231 breast) [µM] | TGI (T-47D breast) [µM] | GI50 (NCI/ADR-RES ovarian) [µM] | GI50 (T-47D breast) [µM] | GI50 (MOLT-4 leukemia) [µM] | GI50 (MDA-MB-231 breast) [µM] | GI50 (EKVX NSCLC) [µM] | GI50 (MALME-3M melanoma) [µM] | GI50 (HCT-15 colon) [µM]
1 | COc1cc(CC(=O)c2cc3c(cc2-c2ccccc2)OCO3)cc(OC)c1OC | > 100 | > 100 | > 100 | > 100 | > 100 | > 100 | > 100 | – | – | – | – | – | – | – | – | – | –
2 | O=C(NCCC1CN(S(=O)(=O)C(F)(F)F)c2ccccc21)OCc1ccccc1 (configuration not stated) | > 100 | – | > 100 | > 100 | > 100 | > 100 | > 100 | > 100 | > 100 | – | – | – | – | – | – | – | –
3 | CC1(C)OC2OC(C(=O)c3ccccc3)C3OC(C)(C)OC3C2O1 (configuration not stated) | > 100 | > 100 | > 100 | > 100 | > 100 | – | > 100 | > 100 | > 100 | > 100 | – | – | – | – | – | – | –
4 | COc1cc(C(=O)N(C(=O)N2CCCCC2)c2ccccc2)cc(OC)c1OC | > 100 | – | > 100 | > 100 | > 100 | – | > 100 | > 100 | > 100 | > 100 | – | – | – | – | – | – | –
5 | COc1cccc(/C=N/NC(=O)CN(C)C)c1O | > 100 | > 100 | > 100 | > 100 | > 100 | > 100 | > 100 | > 100 | – | > 100 | – | – | – | – | – | – | –
6 | c1ccc(Sc2nc(Sc3ccccc3)nc(Sc3ccccc3)n2)cc1 | > 100 | > 100 | > 100 | > 100 | > 100 | > 100 | > 100 | – | > 100 | 45 | – | – | – | – | – | – | –
7 | CC(C)OC(=O)c1cccnc1/C=N/O | > 100 | > 100 | > 100 | > 100 | > 100 | > 100 | > 100 | – | – | – | – | – | – | – | – | – | –
8 | Nc1ccn(CCCC(c2ccccc2)P(=O)(O)O)c(=O)n1 (configuration not stated) | > 100 | > 100 | > 100 | – | – | > 100 | > 100 | – | – | – | – | – | – | – | – | – | –
9 | O=P(Nc1cccc(Cl)c1)(Oc1ccccc1)N(CCCl)CCCl (configuration not stated) | 28.7 | > 100 | 25.8 | > 100 | 33.9 | 28.5 | 28.3 | – | – | – | – | – | – | – | – | – | –
10 | CCSc1[nH]c(NC(=NC(C)C)NC(=O)c2ccccc2)c(C(N)=O)c1C(N)=O | > 10 | > 10 | – | > 10 | > 10 | > 10 | – | – | > 10 | > 10 | – | – | – | – | – | – | –
11 | COC(=O)[C@@H](NC(=O)c1ccc(CNC(=O)/C(C)=C/c2ccccc2)cc1)C(C)C | > 100 | – | > 100 | > 100 | > 100 | > 100 | > 100 | > 100 | > 100 | > 100 | – | – | – | – | – | – | –
12 | COc1cc(O)c2c(=O)c(OC)c(-c3ccc(OC)c(OC)c3)oc2c1.[Sn] | – | > 100 | – | > 100 | > 100 | > 100 | – | > 100 | > 100 | > 100 | > 100 | 7.91 | 80.1 | > 100 | > 100 | > 100 | –
13 | C[C@]12CCC(=O)C=C1CC[C@@H]1C2CC[C@@]2(C)C1CC[C@@H]2OC(=O)C12OC1CCC2=O (some centres not stated) | 30.7 | 33.5 | 29.2 | 32.6 | 31.9 | 33.9 | 29.1 | – | – | – | – | – | – | – | – | – | –
14 | O=c1cc(NNc2cccc(F)c2)[nH]c(=S)[nH]1 | > 100 | > 100 | > 100 | – | > 100 | > 100 | > 100 | > 100 | > 100 | – | – | – | – | – | – | – | –
15 | O=C1C(c2c(O)[nH]c3ccc(I)cc23)=Nc2ccccc21 | > 100 | > 100 | – | > 100 | > 49.4 | > 86.1 | 7.36 | > 100 | 8.47 | > 100 | – | – | – | – | – | – | –
16 | CN(C)CCNC(=O)c1cccc2[nH]c(-c3ccc(Cl)cc3)nc12 | 19.9 | 12 | 13.8 | 5.5 | 34.3 | 19.9 | 18 | 21 | – | – | – | – | – | – | – | – | –
17 | COC(=O)CC1NC(=O)C1C(C)(OC)OC (configuration not stated) | > 100 | > 100 | > 100 | > 100 | > 100 | > 100 | > 100 | – | – | – | – | – | – | – | – | – | –
18 | COc1ccc(NC(=O)C2=CC(=O)c3ccc(O)cc3C2=O)c(OC)c1 | > 100 | > 100 | > 100 | > 100 | > 100 | > 100 | > 100 | – | – | – | – | – | – | – | – | – | –
19 | O=C1NC2OC(CO)C(O)C(O)C2O1 (configuration not stated) | > 100 | > 100 | > 100 | > 100 | > 100 | > 100 | > 100 | – | – | – | – | – | – | – | – | – | –
20 | N#Cc1c(O)c(C=O)c(=O)n2c1[nH]c1ccccc12 | > 100 | – | > 100 | > 100 | > 100 | > 100 | > 100 | > 100 | > 100 | – | – | – | – | – | – | – | –
21 | COc1ccc(N2C(=O)C(=O)C3(CCCCC3)C2=O)c(OC)c1OC | > 100 | > 100 | > 100 | > 100 | > 100 | > 100 | > 100 | > 100 | – | > 100 | – | – | – | – | – | – | –
22 | CNC(=O)c1cc(Oc2cccc3nc(NC(=O)Nc4ccc(F)cc4F)ccc23)ccn1 | > 50 | – | – | – | – | – | – | > 50 | > 50 | – | 1.6 | – | – | 1.59 | – | – | 0.302
23 | O=C(CBr)NCCc1c[nH]c2ccccc12 | 4.36 | 3.69 | 3.15 | 1.92 | 3.72 | 9.41 | 3.53 | 6.96 | 4.49 | – | – | – | – | – | – | – | –
24 | NNC(=S)NN/C=C(\C=Nc1ccccc1)[N+](=O)[O-] | – | > 100 | > 100 | – | > 100 | > 100 | – | – | – | – | – | – | – | – | – | – | –
25 | COc1ccc(/C=C(\C2=NC(=O)CS2)c2nc3ccccc3[nH]2)cc1 | > 100 | > 100 | > 100 | > 100 | > 100 | > 100 | > 100 | – | – | – | – | – | – | – | – | – | –
26 | Cc1ccc(S(=O)(=O)NCCCSCCO)cc1 | > 100 | > 100 | > 100 | > 100 | – | – | > 100 | > 100 | > 100 | > 100 | – | – | – | – | – | – | –
